Test results reported in US20210315882A1, “METHODS OF TREATING A PATIENT HAVING PARKINSON'S DISEASE” (Sunovion Pharmaceuticals Inc., priority 2019, published 2021).

Tested on: patients with Parkinson's disease and “OFF” episodes
Assay: Post hoc analysis of Phase 3 study: motor responses to apomorphine sublingual film compared with levodopa
Type: in vivo, human
From the text: Patients described in Table 9 were enrolled in a study. At screening, patients attended morning in-office visits in the “OFF” state and received their usual morning dose of levodopa without adjunctive PD medications and were both self- and investigator-assessed for a FULL “ON” response (levodopa challenge; FIG. 9). An “OFF” state was accomplished by withholding levodopa and any other adjunctive PD medications after midnight the night before each morning in-office visit.

Compound: N[C@@H](Cc1ccc(O)c(O)c1)C(=O)O [levodopa]
- Responder rate (≥30% decrease in MDS-UPDRS III score from predose) (15 minutes postdose): 18%
- Responder rate (≥30% decrease in MDS-UPDRS III score from predose) (30 minutes postdose): 50%
- time of mean peak response across the time points measured (MDS-UPDRS III score): 95 min
- magnitude of observed peak response in MDS-UPDRS III score (mean±SE) (across the time points measured): −27.9±1.20
- change in MDS-UPDRS III score from predose at 15 minutes postdose (mean±SE) (open-label, film at dose giving FULL “ON”, levodopa usual morning dose, n = 109): −6.0±0.72
